Laboratory results as given in US4375542A, “Kijanimicin antibiotics and derivatives thereof” (Schering Corporation, priority 1980, dated 1983).

Assays:
Plasmodium berghei = assay: antimalarial activity in infected CF1 mice; assay type: in vivo, Plasmodium berghei; CF1 mice; conditions: therapy commenced one day after infection
E. lentum = assay: in vitro activity against anaerobic bacteria: E. lentum; assay type: cell-based
Source text: (§1) Kijanimicin is also active against strains of anaerobic bacteria other than P. acnes. For example, when tested in vitro, the antibiotic was active against strains of Peptococcus species, Peptostreptococcus and E. lentum.

P-388 leukemia = assay: in vivo anti-tumor test, P-388 leukemia in mice (standard National Cancer Institute test)
Protocol: Anti-tumor activity was determined by the standard National Cancer Institute test which was published in Cancer Chemothr. Rep. 3:1-103 1972.
In the test 10^6 cells per mouse of P-388 leukemia (bleomycin sensitive) is administered intraperitoneally on day 1. The test compound is serially diluted (1/10, 1/100, etc.) and each dilution is administered to a mouse from day 1 to day 9. Animals dying on or before day 5 are listed as toxic deaths. Controls are run using bleomycin and olivomycin A. The results are calculated by the formula in which MST=medium survival time in days;
MST ^T /C=MST-T/MST-Control×100.

Peptostreptococcus = assay: in vitro activity against anaerobic bacteria: Peptostreptococcus; assay type: cell-based
Source text: as §1

[1] = anti-inflammatory activity, art recognized test procedures
[2] = room temperature at pH 2-3
Peptococcus species = assay: in vitro activity against anaerobic bacteria: Peptococcus species; assay type: cell-based
Source text: as §1

[3] = acute toxicity (LD50) and therapeutic index; assay type: in vivo

For `COC(=O)N[C@H]1[C@@H](C)O[C@@H](O[C@H]2C/C=C(\C)[C@@H]3C=C[C@@H]4[C@@H](O[C@H]5C[C@@H](O[C@H]6CC(O[C@H]7C[C@H](O)[C@@H](O)[C@H](C)O7)C(O[C@@H]7C[C@@H](O)[C@@H](OC)[C@H](C)O7)[C@H](C)O6)[C@@H](O)[C@H](C)O5)[C@@H](C)C[C@H](C)[C@H]4[C@]3(C)/C(O)=C3\C(=O)O[C@]4(C[C@@H](C)C(CO)=C[C@H]4/C=C/2C)C3=O)C[C@]1(C)[N+](=O)[O-]` (some centres unmarked) [Kijanimicin], the “antiparasitic activity, Plasmodium berghei” value (Plasmodium berghei) was “exhibits antiparasitic activity”, the “in vitro activity against E. lentum” value (E. lentum) was “active” and the “anti-tumor activity against P-388 leukemia” value (P-388 leukemia) was “exhibits anti-tumor activity”. For the same compound, the “in vitro activity against Peptostreptococcus” value (Peptostreptococcus) was “active”, the anti-inflammatory effect [1] was “exhibits an anti-inflammatory effect” and the loss of activity [2] was “loses activity rapidly”. For the same compound, the “in vitro activity against Peptococcus species” value (Peptococcus species) was “active”, the “oral LD50” value ([3]; oral) was “greater than 1000 mg/kg” and the “therapeutic index (LD50 / PD50), oral” value ([3]; oral) was “about 10”. For the same compound, the “subcutaneous LD50” value ([3]; subcutaneous) was “greater than 1000 mg/kg” and the “therapeutic index (LD50 / PD50), subcutaneous” value ([3]; subcutaneous) was “about 10”.
